# Results: PubChem BioAssay AID2305 (GlaxoSmithKline (GSK), 2010)
# Where “and” joins values, the source holds several entries; their conditions need not be identical. Equal entries are not always repeated.
# System: P. falciparum 3D7 growth, pLDH absorbance
# Assay: blood-stage malaria parasite growth potency – strain 3D7, dose response (AID 2305)
row,Structure (SMILES),IC50
1,CC(C)OC(=O)c1ccc(NC(=O)N[C@@H](Cc2ccc(O)cc2)C(=O)NC2CCC(CCN3[C@@H]4CC[C@H]3c3ccccc34)CC2)cc1 (stereo partly specified),0.83 µM
2,CCCCCC(NCCCC)c1ccc(OCCOc2ccc(C(CCCCC)NCCCC)cc2)cc1 (stereo unspecified),1.24 µM
3,CCN1CC[C@]2(c3cccc(OC)c3)Cc3nc4ccccc4c(-c4ccccc4)c3C[C@H]2C1,0.35 µM
4,COc1ccccc1NC(=O)OC(COc1ccc(N)cc1)CN1CC=C(c2ccccc2)CC1 (stereo unspecified),1.04 µM
5,COc1cc2c(cc1C(F)(F)F)N(C(=O)Nc1cccc(-c3ccc(CN(C)C)cc3)c1)CC2,0.71 µM
6,Cc1cc(NC(=O)Nc2ccc(Cl)cc2F)c2ccccc2n1,0.55 µM
7,O=C(/C=C/c1ccc(Cl)c(Cl)c1)NCCCCCN1CCCN(C(=O)Nc2cccc(F)c2)CC1,0.76 µM
8,COc1ccccc1N1CCN(Cc2c(O)ccc3cc(Br)ccc23)CC1,1.15 µM
9,O=C(Nc1ccc(F)c([N+](=O)[O-])c1)Nc1cc(C(F)(F)F)ccc1Cl,0.86 µM
10,NC(=O)COc1c(C2CCN(CCN3CCC(CNC(=O)c4ccc(-c5ccc(C(F)(F)F)cc5)cc4)CC3)CC2)ccc2c1CCCC2,0.97 µM
11,O=C(C=Cc1ccc(Cl)c(Cl)c1)NCCCCCN1CCCC(CCCNS(=O)(=O)c2cccc3cccnc23)C1 (stereo unspecified),1 µM
12,CN(C)Cc1ccc(-c2cc3ncnc(Nc4ccc(OCc5cccc(F)c5)c(Cl)c4)c3s2)[nH]1,0.17 µM
13,Cc1ccccc1CNc1nccc(NCCC(=O)Nc2ccccc2)n1,0.89 µM
14,Nc1cccc(CNCc2cccc(-c3ccc(-c4nc5ccccc5[nH]4)cc3)c2)c1,0.42 µM
15,Nc1nccc2ccc(-c3ccncc3)cc12,0.25 µM
16,COc1ccc(S(=O)(=O)NC2CCN(CCCOc3ccnc4cc(Cl)ccc34)C2)cc1OC (stereo unspecified),1.05 µM
17,Cc1noc(C)c1-c1cccc(CNCc2cccc(-c3ccc(-c4nc5ccccc5[nH]4)cc3)c2)c1,0.23 µM
18,COc1cc2c(cc1OC)CN(CCc1ccc(NC(=O)c3cc4cc(OC(F)(F)F)ccc4[nH]3)cc1)CC2,0.53 µM
19,Cc1nnnn1-c1ccc(C(=O)N2CCC3(CC2)CN(Cc2ccc(Cl)c(Cl)c2)C(=O)O3)cc1,0.18 µM
20,CCn1c(-c2nonc2N)nc2c(-c3ccccc3)ncc(OCCCNCCCN3CCOCC3)c21,0.67 µM
21,COc1ccc(Cl)cc1NC(=O)Nc1cc(C)nc2ccccc12,0.29 µM
22,CCn1ccc2c(N3CCCCS3(=O)=O)cc(C(=O)N[C@@H](Cc3ccccc3)[C@H](O)CNC(C)(C)CCCC(C)C)cc21,0.42 µM
23,CCc1cn(CC(=O)N(CCOc2ccc(-c3ccc(C(F)(F)F)cc3)cc2)CCN(CC)CC)c(SCc2ccc(F)cc2)nc1=O,0.78 µM
24,CCCCCN=C(N)N/N=C/c1c[nH]c2ccc(OC)cc12,0.96 µM

row,Structure (SMILES),IC50
1,CCN(CC)C(=O)C1CCCN(c2cc(C)nc(Nc3ccc(Cl)cc3)n2)C1 (stereo unspecified),0.72 µM
2,CC(C)CNCc1ccc(-c2ccc(CNC3CCN(Cc4ccccc4)CC3)cc2)cc1,0.56 µM
3,COc1ccc(CNC2CCN(C)CC2)cc1-c1ccc(S(=O)(=O)NCc2ccccc2)s1,0.23 µM
4,COc1ccc(C2C(C(=O)Nc3ccc4c(c3)OCO4)c3cc(OC)c(OC)cc3C(=O)N2C)cc1 (stereo unspecified),1.04 µM
5,COc1ccc2nccc([C@@H](O)CN3CCC(NC(=O)/C=C/c4ccnc5ccccc45)CC3)c2c1,0.94 µM
6,CCN(CC)CCN(Cc1ccc(-c2ccc(C(F)(F)F)s2)cc1)C(=O)Cn1c(CCc2cccc(F)c2F)nc(=O)c2ccccc21,0.99 µM
7,O=C(/C=C/c1ccc(Cl)cc1)NCCCCCN1CCC(C(=O)Nc2cccc(Cl)c2)CC1,0.85 µM
8,CC(=O)N(C)C1CCN(Cc2cccc(-c3ccc(-c4nc5ccc(F)cc5[nH]4)cc3)c2)C1 (stereo unspecified),0.96 µM
9,Cc1ccc(/C=C/C(=O)NC2CCC(N3CCC(c4ccccc4C)CC3)CC2)cc1F (stereo unspecified),1.04 µM
10,N#Cc1ccc(N(CCCO)Cc2ccccc2C(F)(F)F)cc1C(F)(F)F,0.98 µM
11,Oc1ccc2c(CNCCc3ccccc3)c(O)ccc2c1CNCCc1ccccc1,0.1 µM
12,Cc1noc(-c2ccccc2)c1NC(=O)N1CCN(CCCCCCNC(=O)/C=C/c2ccc(Cl)c(Cl)c2)CC1,0.88 µM
13,CS(=O)(=O)Nc1ccc2[nH]cc(C3CCN(CC4CCC(NC(=O)/C=C/c5ccc(Cl)c(Cl)c5)CC4)CC3)c2n1 (stereo unspecified),0.78 µM
14,CNC(=O)C1Cc2c([nH]c3cc(Cl)ccc23)C2(CCN(CCc3ccccc3)CC2)N1 (stereo unspecified),0.93 µM
15,O=C(Cc1ccc(NC(=O)c2ccc(O)c(-c3cccc([N+](=O)[O-])c3)c2)cc1)NCCN1CCCCC1,0.9 µM
16,CC1CCN(c2nc(C(=O)Nc3cccc4c3CCCC4)c(C(C)C)s2)CC1,1.04 µM
17,Cc1ccc(C2(O)C[C@H]3CC[C@@H](C2)N3C)cc1 (stereo partly specified),0.61 µM
18,O=C(Nc1ccc([N+](=O)[O-])cc1)Nc1cc(C(F)(F)F)ccc1F,1.07 µM
19,Cc1ccc2c(NN=Cc3ccc(Cl)cc3)cc(C)nc2c1,0.95 µM
20,CS(=O)(=O)CCNCc1ccc(-c2ccc3c(Nc4ccc(Oc5ccccn5)cc4)ccnc3c2)o1,0.71 µM
21,N#Cc1ccc(-c2ccc(C(=O)NCCCCN3CCC(c4cc(Br)c5c(c4OCC(N)=O)CCCC5)CC3)cc2)cc1,0.8 µM
22,CNCc1ccc(CN(C)c2nc(N)c3cc(OC)c(OC)cc3n2)cc1,1.03 µM
23,Nc1cc(C=Cc2ccc([N+](=O)[O-])o2)nc2ccccc12,0.37 µM
24,CCc1ccc(CC(C)NCC(O)c2ccccc2)cc1 (stereo unspecified),0.89 µM

row,Structure (SMILES),IC50
1,CNC(=O)c1c(NC(=O)c2cccs2)sc2c1CCCC2,0.82 µM
2,Cc1cc2ncc(C(N)=O)c(Nc3ccc(N4CCOCC4)cc3)c2cc1S(C)(=O)=O,0.67 µM
3,Cc1nnsc1C(=O)Nc1cccc(-c2cccc(-c3nc4c(C)cccc4[nH]3)c2)c1,0.27 µM
4,O=C(C=Cc1ccc(Cl)c(Cl)c1)NCCCCCN1CCC(CCNC(=O)c2cccc3ccccc23)CC1,1.59 µM
5,O=C(NCCCCN1CCC(c2ccc3ccccc3c2O)CC1)c1ccc(NC(=O)c2ccc(Cl)cc2)cc1,1.01 µM
6,CN1CC=C(c2csc3ccc(NC(=O)Nc4ccc(-c5ccncc5)c(Cl)c4)cc23)CC1,0.68 µM
7,CCCCC1=CC2C(=O)C(C(=O)OC)=CN=C2C=C1OCc1ccccc1 (stereo unspecified),0.04 µM
8,Cc1cccc2[nH]c(-c3ccc(-c4ccc(CNCC5CCCO5)cc4)s3)nc12 (stereo unspecified),0.74 µM
9,CCCC(C)NC(=O)c1cnn(-c2ccc(C(C)(C)C)cc2)c1OCc1ccc(Br)cc1 (stereo unspecified),1.06 µM
10,CN(C)CCOC(=O)C1(O)CCC2CC1C2(C)C (stereo unspecified),0.98 µM
11,CCN(CC)CCCN(C(=O)c1cc2c(C)nn(-c3ccccc3)c2s1)c1nc(-c2ccc(OC)cc2)cs1,1.15 µM
12,Cc1cc(=O)c(-c2ccc(Sc3ccc(Cl)cc3)cc2)c(C)[nH]1,0.97 µM
13,Cc1[nH]c2ccc(-c3ccccc3)cc2c(=O)c1Br,0.16 µM
14,Oc1ccc2[nH]cc(C3CCN(CCCNCc4ccc(-c5ccccc5)cc4)CC3)c2c1,0.72 µM
15,CC(C)C[C@@H](/C=N/N1CC(=O)NC1=O)NC(=O)[C@H](CC(C)C)NC(=O)c1ccc(OCCN2CCOCC2)cc1,0.27 µM
16,CN1CCN(c2ccnc3ccc(NC(=O)Nc4ccc(-c5ccccc5)cc4)cc23)CC1,0.78 µM
17,COc1ccc(CCON2C(N)=NC(N)=NC2(C)C)cc1OC,0.01 µM
18,Nc1ccc(-c2nc3cc(C4=N[C@H]5CCCC[C@H]5N4)ccc3o2)cc1[N+](=O)[O-],1.12 µM
19,O=C(NCc1ccc(C(=O)NC2CCCCCC2)cc1)c1ccc(O)c(-c2ccc(Cl)c(Cl)c2)c1,1.06 µM
20,CCCCCCn1ccc2c3c(N)nc(N)nc3ccc21,0.15 µM
21,Cc1noc(C)c1CN1CCCN(c2ccc3c(c2)CCN(Cc2ccc(-c4ncc[nH]4)cc2)CC3)CC1,0.86 µM
22,CCNc1cc(C(=O)N[C@@H](Cc2ccccc2)[C@H](O)CNC(C)(C)CC(C)(C)C)c(F)c(N2CCCCS2(=O)=O)c1,1.01 µM
23,O=C(Nc1cc(F)cc(F)c1)N[C@H]1CCN(CCCCCNC(=O)[C@@H]2C[C@H]2c2ccc(Cl)c(Cl)c2)C1,1.08 µM
24,COc1cc(NC(=O)c2sc(-c3ccc(Cl)cc3)cc2NC(=O)c2ccncc2)ccc1OCCN1CCCC1,0.03 µM

row,Structure (SMILES),IC50
1,Cc1ccc(O)c(Nc2c3c(c(C#N)c4nc5ccccc5n24)CCC3)c1,1.25 µM
2,CC(C)C(NC(=O)Cc1cccc2ccccc12)C(=O)Nc1cccc(C#N)c1 (stereo unspecified),0.66 µM
3,Cc1cccc2[nH]c(-c3cccc(-c4ccc(NC(=O)NCc5cccc(F)c5)cc4)c3)nc12,0.24 µM
4,O=C(Cn1c(CCc2cccc(F)c2F)nc(=O)c2cccnc21)N(Cc1ccc(-c2ccc(C(F)(F)F)cc2)cc1)C1CCN(C2CCOCC2)CC1,0.83 µM
5,O=C(N[C@@H](Cc1ccccc1)C(=O)NC1CCCCCC1)c1ccc(O)c(-c2cccc(C(F)(F)F)c2)c1,0.73 µM
6,COc1cccc(OC)c1C(=O)Nc1cccc(-c2nn3ccccc3c2-c2ccnc(Nc3cccc(F)c3)n2)c1,0.75 µM
7,O=C(c1ccccc1)[C@H]1C[C@@H]1CN1CC=C(c2c[nH]c3ccccc23)CC1,0.53 µM
8,COc1cccc(-c2nn(C)c3sc(C(=O)NCCN(C)Cc4ccccc4)cc23)c1,0.81 µM
9,Cc1cnc(Nc2ccccc2)nc1NCCC(=O)Nc1ccccc1,1.16 µM
10,NC1CCN(Cc2cccc(-c3ccc(-c4nc5ccccc5[nH]4)cc3)c2)C1 (stereo unspecified),0.83 µM
11,Clc1ccc2c(NCCc3ccccn3)ccnc2c1,0.83 µM
12,C=C[C@H]1CN2CC[C@H]1C[C@H]2[C@H](O)c1ccnc2ccc(OC)cc12,0.1 µM and 0.43 µM and 0.15 µM
13,Cc1cc(CN2CCC(Nc3ncc(-c4ccsc4)c4nc(C(F)(F)F)ccc34)CC2)no1,1.1 µM
14,Cc1nc2c(s1)c(=O)cc(CCc1cccc(F)c1F)n2CC(=O)N(Cc1ccc(-c2ccc(C(F)(F)F)cc2)cc1)C1CCN(C(C)C)CC1,0.77 µM
15,CCNC(=NCc1ccccc1)NCCCCCCNC(=NCc1ccccc1)NCC,0.7 µM
16,C=CCn1c(SCC(=O)Nc2cc(C)ccc2OC)nc2sc(C)cc2c1=O,0.42 µM
17,CCOc1cc(Cc2cnc(N)nc2N)ccc1OC,1.25 µM
18,Fc1ccc2nc(-c3cccc(-c4ccc(CNCCc5ccncc5)cc4)c3)[nH]c2c1,0.11 µM
19,COc1cc(Cl)c(C)cc1N(Cc1ccccc1-c1ccccc1)S(=O)(=O)c1ccc(C(F)(F)F)cc1,1.05 µM
20,Clc1ccc2c(NCCCCCCCCNc3ccnc4cc(Cl)ccc34)ccnc2c1,0.48 µM
21,CC(C)(CNCc1cccc(Oc2ccccc2)c1)c1nc(-c2ccc(Cl)c(O)c2)c(-c2ccnc(N)n2)[nH]1,0.76 µM
22,CN(C)C(=O)n1cnc(S(=O)(=O)N(C)c2ccc(Cl)cc2)n1,0.77 µM
23,O=C(/C=C/c1ccc(Cl)c(Cl)c1)NCCCCCN1CCCN(C(=S)Nc2cccc(Cl)c2)CC1,1.05 µM
24,Cc1cccc2[nH]c(-c3cccc(-c4cccc(NC(=O)Nc5ccc(F)c(F)c5F)c4)c3)nc12,0.11 µM
